Measured values: patent publication US10683297B2 (Sunshine Lake Pharma Co., Ltd., priority 2017, dated 2020)
Marks after values point to notes of the source that are not given here.

Legend:
[1] = Compound stability in human liver microsomes; type: in vitro ADME; settings: for half-life at 5 μM: human liver microsomes 0.5 mg protein/mL, compound 5 μM, NADPH 1.0 mM, pH 7.4, 37° C., read-out: Human T1/2; for CLint scaled at 5 μM: liver microsomes, pH 7.4, in vivo CLint extrapolated from human liver microsome incubation
Summary of the method: (§1)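 Compounds (5 μM) incubated at 37 °C with human or rat liver microsomes (0.5 mg protein/mL) and 1.0 mM NADPH in 100 mM phosphate buffer pH 7.4, 0.05% DMSO, in duplicate. Sampled 0–60 min, quantified by LC/MS/MS as % of time zero; CLint extrapolated.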

JAK1 (h) = molecular target: T1, JAK1 (h) (Homo sapiens, UniProt P23458); assay: JAK1 (h) kinase assay; type: biochemical; settings: [γ-33P-ATP] 10 μM or KM values; 40 minutes at room temperature
T1 construct: purchased Millipore UK Ltd (assays performed there as a service)
Summary of the method: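 Radiometric filter-binding assay: human JAK1 incubated 40 min at room temperature in 20 mM Tris/HCl pH 7.5, 0.2 mM EDTA, 500 μM peptide substrate, 10 mM Mg acetate, with [γ-33P]ATP at 10 μM or KM. Reaction stopped with phosphoric acid; P30 filtermat scintillation counting.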

[2] = Compound stability in rat liver microsomes; type: in vitro ADME; settings: for CLint scaled at 5 μM: liver microsomes, pH 7.4, in vivo CLint extrapolated from rat liver microsome incubation; for half-life at 5 μM: rat liver microsomes 0.5 mg protein/mL, compound 5 μM, NADPH 1.0 mM, pH 7.4, 37° C., read-out: Rat T1/2
Summary of the method: as §1

Aurora-B (h) = molecular target: T2, Aurora-B (h) (Homo sapiens, UniProt Q96GD4); assay: Aurora-B (h) kinase assay; type: biochemical; settings: [γ-33P-ATP] 10 μM or KM values; 40 minutes at room temperature
T2 construct: purchased Millipore UK Ltd (assays performed there as a service)
Description: (§2) The above assay procedure can be used to determine the IC50 for inhibition and/or the inhibition constant, Ki. […] The IC50 value is estimated by preparing a 10 point curve using a ½ log dilution series (for example, a typical curve may be prepared using the following compound concentrations: 3 μM, 1 μM, 0.3 μM, 0.1 μM, 0.03 μM, 0.01 μM, 0.003 μM, 0.001 μM, 0.0003 μM and 0 μM).
(§3) Aurora-B (h) is incubated with 8 mM MOPS pH 7.0, 0.2 mM EDTA, 30 μM […], 10 mM MgAcetate and [γ-^33PATP] […] The reaction is initiated by the addition of the MgATP mix. After incubation for 40 minutes at room temperature, the reaction is stopped by the addition of a 3% phosphoric acid solution. 10 μL of the reaction is then spotted onto a P30 filtermat and washed three times for 5 minutes in 75 mM phosphoric acid and once in methanol prior to drying and scintillation counting.
(§4) The kinase assays described herein were performed at Millipore UK Ltd, Dundee Technology Park, Dundee DD2 1SW, UK.

JAK2 (h) = molecular target: T3, JAK2 (h) (Homo sapiens, UniProt O60674); assay: JAK2 (h) kinase assay; type: biochemical; settings: [γ-33P-ATP] 10 μM or KM values; 40 minutes at room temperature
T3 construct: purchased Millipore UK Ltd (assays performed there as a service)
Description: Kinase assays can be performed by measurement of incorporation of γ-^33P ATP into immobilized myelin basic protein (MBP). High binding white 384 well plates (Greiner) are coated with MBP (Sigma # M-1891) by incubation of 60 μL well of 20 μg/mL MBP in Tris-buffered saline (TBS; 50 mM Tris pH 8.0, 138 mM NaCl, 2.7 mM KCl) for 24 h at 4° C. Plates are washed 3× with 100 μL TBS. Kinase reactions are carried out in a total volume of 34 μL in kinase buffer (according to the need to make, for example, 5 mM Hepes pH 7.6, 15 mM NaCl, 0.01% bovine gamma globulin (Sigma #1-5506), 10 mM MgCl2, 1 mM DTT, 0.02% TritonX-100). Compound dilutions are performed in DMSO and added to assay wells to a final DMSO concentration of 1%. Each data point is measured in duplicate, and at least two duplicate assays are performed for each individual compound determination. Enzyme is added to final concentrations of 10 nM or 20 nM, for example. A mixture of unlabeled ATP and γ-^33P ATP is added to start the reaction (2×10^6 cpm of γ-^33P ATP per well (3000 Ci/mmole) and 10 μM unlabeled ATP, typically. The reactions are carried out for 1 hour at room temperature with shaking. Plates are washed 7× with TBS, followed by the addition of 50 μL well scintillation fluid (Wallac). Plates are read using a Wallac Trilux counter. This is only one format of such assays; various other formats are possible, as known to one skilled in the art.
as §2
as §3, with “JAK2 (h)” for “Aurora-B (h)”, “EDTA, 100” for “EDTA, 30”, “and [γ-^33P-ATP]” for “and [γ-^33PATP]”, “of” for “of a”
as §4

[3] = system: PMA-induced increase in mouse ear thickness and weight; assay: Topical PMA-induced acute atopic dermatitis in ICR mice; type: in vivo; settings: ICR female mice, 0.3 mg/ear/bid topical
Description: ICR female mice (20-30 g), five mice or nine mice/group, were used in this study. Five micrograms of PMA (phorbol 12-myristate 13-acetate) in 20 μL of ethanol was applied topically to the anterior and posterior surface of the right ear of each mouse. Twenty microliters of vehicle (ethanol/acetone ([…])=1/1); 0.3 mg of EX. 68 ([…]); EX. 76, EX. 50, EX. 92 or EX. 65 (0.3 mg […]) were administrated to the same areas 30 minutes before and 15 minutes after PMA application. The thickness of right ears of each mouse was measured 6 hours after PMA stimulation. Ear weight of right ears of each mouse was weighed with analytical balance Each value represents the Mean±Sem. Statistical significance compared with model groups (*P<0.05; **P<0.01). Tables 5-1, 5-2 and 5-3 listed the inhibitory effect on PMA-induced increase in mouse ear thickness and weight. The compounds of the present invention have a good inhibitory effect on PMA-induced increase in mouse ear thickness and weight.

T1 sequence (P23458 whole entry): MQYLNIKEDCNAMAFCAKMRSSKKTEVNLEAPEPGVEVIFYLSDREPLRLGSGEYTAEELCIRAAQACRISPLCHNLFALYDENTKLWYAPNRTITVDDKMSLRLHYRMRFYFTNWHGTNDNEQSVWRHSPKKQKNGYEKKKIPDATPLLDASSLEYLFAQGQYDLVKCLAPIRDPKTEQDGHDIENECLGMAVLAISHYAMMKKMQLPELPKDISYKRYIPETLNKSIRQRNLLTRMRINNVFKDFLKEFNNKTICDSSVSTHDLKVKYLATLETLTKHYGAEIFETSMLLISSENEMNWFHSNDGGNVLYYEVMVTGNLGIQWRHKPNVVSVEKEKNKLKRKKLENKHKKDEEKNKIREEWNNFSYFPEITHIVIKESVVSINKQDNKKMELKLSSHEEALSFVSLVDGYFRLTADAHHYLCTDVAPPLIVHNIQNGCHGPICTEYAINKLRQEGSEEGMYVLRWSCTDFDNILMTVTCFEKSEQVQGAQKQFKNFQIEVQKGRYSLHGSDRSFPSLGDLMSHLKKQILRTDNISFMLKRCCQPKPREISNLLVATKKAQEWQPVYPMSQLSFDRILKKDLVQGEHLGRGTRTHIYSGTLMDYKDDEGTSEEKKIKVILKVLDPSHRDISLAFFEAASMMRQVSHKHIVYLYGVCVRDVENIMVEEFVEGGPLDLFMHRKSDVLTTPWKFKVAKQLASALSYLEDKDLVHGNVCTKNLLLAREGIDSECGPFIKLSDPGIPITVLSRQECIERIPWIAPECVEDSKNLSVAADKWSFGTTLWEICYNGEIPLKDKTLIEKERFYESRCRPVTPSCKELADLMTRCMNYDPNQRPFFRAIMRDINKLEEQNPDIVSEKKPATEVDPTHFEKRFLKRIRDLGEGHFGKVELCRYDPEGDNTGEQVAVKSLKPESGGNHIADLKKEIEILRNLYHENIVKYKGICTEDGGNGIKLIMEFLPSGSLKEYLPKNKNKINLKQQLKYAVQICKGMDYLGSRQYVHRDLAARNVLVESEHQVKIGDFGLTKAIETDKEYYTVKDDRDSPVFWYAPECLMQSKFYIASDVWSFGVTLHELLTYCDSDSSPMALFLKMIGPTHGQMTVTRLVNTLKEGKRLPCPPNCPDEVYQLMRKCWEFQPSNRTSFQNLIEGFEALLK
T3 sequence (O60674 whole entry): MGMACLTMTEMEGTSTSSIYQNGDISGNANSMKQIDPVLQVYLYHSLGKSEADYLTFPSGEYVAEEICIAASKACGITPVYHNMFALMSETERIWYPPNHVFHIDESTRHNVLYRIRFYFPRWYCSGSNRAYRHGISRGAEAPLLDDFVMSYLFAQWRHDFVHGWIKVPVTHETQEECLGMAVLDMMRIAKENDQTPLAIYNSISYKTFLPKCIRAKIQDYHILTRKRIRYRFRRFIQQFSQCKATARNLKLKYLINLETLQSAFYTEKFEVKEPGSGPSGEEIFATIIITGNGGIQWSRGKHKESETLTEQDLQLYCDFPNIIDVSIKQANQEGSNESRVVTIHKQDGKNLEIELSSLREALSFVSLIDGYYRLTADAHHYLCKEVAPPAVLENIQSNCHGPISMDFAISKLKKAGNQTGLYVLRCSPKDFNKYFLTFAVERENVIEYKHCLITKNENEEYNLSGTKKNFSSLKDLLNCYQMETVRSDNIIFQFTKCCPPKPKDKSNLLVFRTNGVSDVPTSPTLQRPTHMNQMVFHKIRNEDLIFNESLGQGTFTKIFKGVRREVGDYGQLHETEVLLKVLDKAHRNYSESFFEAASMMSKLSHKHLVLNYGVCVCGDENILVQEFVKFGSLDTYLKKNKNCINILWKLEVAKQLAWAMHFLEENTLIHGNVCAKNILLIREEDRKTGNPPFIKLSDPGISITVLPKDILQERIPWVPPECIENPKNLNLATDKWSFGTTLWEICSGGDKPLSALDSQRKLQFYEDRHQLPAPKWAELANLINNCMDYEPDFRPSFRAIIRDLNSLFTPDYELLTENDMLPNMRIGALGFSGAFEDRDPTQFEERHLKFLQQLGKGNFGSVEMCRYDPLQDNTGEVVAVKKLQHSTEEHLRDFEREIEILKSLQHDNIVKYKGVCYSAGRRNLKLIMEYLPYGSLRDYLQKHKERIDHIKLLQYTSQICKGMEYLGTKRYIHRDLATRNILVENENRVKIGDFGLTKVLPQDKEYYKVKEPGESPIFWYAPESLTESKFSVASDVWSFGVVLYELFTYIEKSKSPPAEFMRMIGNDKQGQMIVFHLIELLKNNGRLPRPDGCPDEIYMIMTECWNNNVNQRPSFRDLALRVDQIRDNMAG
T2 sequence (Q96GD4 whole entry): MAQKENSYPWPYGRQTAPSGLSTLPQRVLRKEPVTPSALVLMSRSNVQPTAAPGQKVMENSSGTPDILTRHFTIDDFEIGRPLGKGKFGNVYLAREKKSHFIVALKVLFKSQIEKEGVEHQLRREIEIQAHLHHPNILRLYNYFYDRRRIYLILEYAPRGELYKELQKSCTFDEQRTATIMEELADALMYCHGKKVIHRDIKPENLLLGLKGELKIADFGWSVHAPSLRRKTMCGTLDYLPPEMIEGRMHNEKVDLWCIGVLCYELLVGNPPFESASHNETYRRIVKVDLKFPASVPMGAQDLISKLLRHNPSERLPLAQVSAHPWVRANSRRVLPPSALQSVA

| Compound | half-life at 5 μM [1] [min] | CLint scaled at 5 μM [1] [mL/min/kg] | IC50 (JAK1 (h)) [nM] | CLint scaled at 5 μM [2] [mL/min/kg] | half-life at 5 μM [2] [min] | IC50 (Aurora-B (h)) [nM] | IC50 (JAK2 (h)) [nM] | Weight Inhibition ratio [3] [%] | thickness (right ear) ([3]; 30 minutes before and 15 minutes after PMA, 6 hours after PMA, Mean±Sem) | Weight (right ear) ([3]; 30 minutes before and 15 minutes after PMA, Mean±Sem) | thickness Inhibition ratio ([3]; 6 hours after PMA) [%] |
| --- | --- | --- | --- | --- | --- | --- | --- | --- | --- | --- | --- |
| CN(C)C(=O)c1nc2cc(Nc3ncc(Cl)c(NC4CCN(c5ccc(C#N)nn5)CC4)n3)ccn2n1 [Example 85, 7-((5-chloro-4-((1-(6-cyanopyridazin-3-yl)piperidin-4-yl)amino)pyrimidin-2-yl)amino)-N,N-dimethyl-[1,2,4]triazolo[1,5-a]pyridine-2-carboxamide] | 32.5 | 53.5 | 0.3 | 106 | 23.5 | 163 | 17 |  |  |  |  |
| CC(C)(O)Cc1cn2ccc(Nc3ncc(Cl)c(NC4CCN(c5ccc(C#N)cn5)CC4)n3)cc2n1 [Example 76, 6-(4-((5-chloro-2-((2-(2-hydroxy-2-methylpropyl)imidazo[1,2-a]pyridin-7-yl)amino)pyrimidin-4-yl)amino)piperidin-1-yl)nicotinonitrile] | 15.1 | 115 | 0.5 | 1440 | 1.7 |  |  | 68.40 | 0.252 ± 0.018** mm | 20.000 ± 1.323** mg | 77.86 |
| CC(C)(O)Cn1nnc2cc(Nc3ncc(Cl)c(NC4CCN(c5ccc(C#N)nn5)CC4)n3)ccc21 [Example 62, 6-(4-((5-chloro-2-((1-(2-hydroxy-2-methylpropyl)-1H-benzo[d][1,2,3]triazol-5-yl)amino)pyrimidin-4-yl)amino)piperidin-1-yl)pyridazine-3-carbonitrile] | 192 | 9.1 | 0.4 | 75.3 | 33 | 48 | 2 |  |  |  |  |
